Measured values from patent US11638719B2, “Product for obesity treatment” (YEDITEPE UNIVERSITESI, priority 2017, dated 2023).

How the values were obtained:
Format in all cases: cell-based
[1] = system: human adipose stem cells (hASCs); test: Cytotoxicity analysis, cell viability by MTS assay; details: NaB 20 μg/ml; for cell viability: MTS
Protocol: Cytotoxicity of Pluronic® F68 and NaB were dissolved and tested at 7 different concentrations in DMEM ([…], 0.7%, 0.5%, 0.3%, 0.1%, 0.05%, 0.01% (w/v) for F68 and 5, 10, 20, 50, 100, 200 and 300 ug/ml for NaB).
HASCs were seeded into 96-well culture plates (Corning Plasticware, Corning, N.Y., cat. no. CLS3360) at 5,000 cells/well. The next day, the cells were treated with F68 and NaB solutions that were prepared at different concentrations. In accordance with the manufacturer's instructions, cell viability was measured by the MTS assay (Promega, Southampton, UK CellTiter 96 AqueousOne solution). After 24, 48 and 72 hours of incubation, 10 ul of MTS reagent and 100 ul of DMEM medium were applied to the cells and then, after incubation at 37° C. for 2 hours, their absorbances at […] were measured with the ELISA plate reader (BioTek Instruments, Inc., Vt., USA).

[2] = system: PPARγ, FABP4 and adiponectin protein expression in human adipose stem cells; test: Immunocytochemical analysis of PPARγ, FABP4 and adiponectin proteins after adipocyte differentiation; details: F68 0.05%, NaB 20 μg/ml, alone or combined at the same ratios; compared to positive control
Protocol: (§1) The cells were seeded into 6-well culture plates at 100,000 cells/well in an adipogenic differentiation medium. Content of the medium was as follows. 10% (v/v) FBS, 1 uM dexamethasone, 100 uM indomethacin (Sigma, USA), 500 uM IBMX (Calbiochem Merck Millipore, Germany) and 0.01 mg/mL insulin (Gibco, UK). 5 different groups were prepared; only F68, only NaB, F68 and NaB combination, PC and NC. Adipogenic differentiation was applied for 10 days by changing the medium every other day. While only DMEM, 10% (v/v) FBS and 1% (v/v) PSA were applied to the negative control group, the positive control group was cultured with adipogenic differentiation medium.
Human adipose stem cells were seeded into 48-well plates at 8,000 cells/well. Following the differentiation experiment, the cells were fixed in 2% (w/v) paraformaldehyde at 4° C. for 30 minutes and then blocked with 2% (v/v) goat serum (Sigma, USA) for 20 minutes. The cells incubated at 4° C. overnight with PPAR-γ (ab8934, Abcam, UK, 1: 100), FABP4 (SC-30088, Santa Cruz Biotechnology, Tex., USA, 1:100) and adiponectin (ab22554, Abcam, UK, 1:50) primary antibodies were then incubated with secondary antibodies (goat anti-rabbit IgG Alexa Fluor 488, goat anti-mouse IgGAlexaFluor 488, 1:1000) at 4° C. for 2 hours. […] Immunocytochemical analysis results were observed under fluorescence microscope (NiconEclipse TE200). […]

[3] = system: PPARγ, FABP4 and adiponectin gene expression in human adipose stem cells; test: RT-PCR analysis of adipogenesis-promoting gene expression after adipocyte differentiation; details: F68 0.05%, NaB 20 μg/ml, alone or combined; 10 days adipogenic differentiation; compared to positive control; normalized to GAPDH
Protocol: as §1
Following differentiation, RNA isolation was carried out using High Pure RNA Isolation Kit (Roche, Germany) in accordance with the manufacturer's instructions. After performance of cDNA synthesis (High Fidelity cDNA synthesis kit, Roche, Germany) from isolated RNA samples, RT-PCR was performed in three replicates using iCycler RT-PCR detection system (Bio-Rad, Hercules, Calif.). Synthesis levels were normalized to GAPDH.
For each sample the fold changes in the expression levels were determined using the method 2 (-Delta Delta C (t)).

[4] = system: human adipose stem cells (hASCs); test: 'Oil Red O' staining of fat accumulation after adipocyte differentiation; details: F68 0.05%, NaB 20 μg/ml, alone or combined; 10 days adipogenic differentiation; compared to positive control
Protocol: as §1
The ‘Oil Red O’ solution was prepared by dissolving 0.5 grams of ‘Oil Red O’ (Sigma, USA) in 100 ml of isopropanol. After being fixed with 2% paraformaldehyde (weight/volume) for 30 minutes, the cells were incubated in ‘Oil Red O’ solution (diluted in PBS at 6:4) for 1 hour. The cells were observed under light microscope.
Statistical analysis of the results was performed with the unpaired t-test and the graphs were drawn using GraphPad Prism 5 software Statistical significance was accepted as p<0.05. In addition, a graphical representation of the results obtained from immunocytochemistry and ‘Oil red O’ staining was obtained using the Adobe Creative Suite 6 program

sodium pentaborate pentahydrate [NaB]
cell viability ([1]; end of day 1, hASCs): 101%
cell viability ([1]; end of day 2, hASCs): 106%
cell viability ([1]; end of day 3, hASCs): 109%
cytotoxicity of the dosage used ([1]; hASCs): non-cytotoxic
PPARγ, FABP4 and adiponectin protein expression levels [2]: higher than that of positive control
expression levels of PPARγ, FABP4 and adiponectin genes [3]: increased significantly
amount of fat accumulation in the cells [4]: increased the amount of fat accumulation
